Measured values published in ChEMBL document CHEMBL6134803, “ZLDI-8 facilitates pexophagy by ROS-mediated activation of TFEB and ATM in HeLa cells” (Bioorg Med Chem Lett, 2025).
Active and inactive are the calls of the source. The calls are words filed in the database; no cut-off is given here.

Tests used:
Type in all cases: functional, cell-based
HeLa [1] = assay: Induction of TFEB nuclear translocation in human HeLa cells assessed as decrease in TFEB phoshorylation at 5 uM cotreated with ROS scavenger NAC measured at 48 hrs by Western blot analysis
HeLa [2] = assay: Induction of pexophagy in ATG5 knockout human HeLa cells assessed as reduction in peroxisomes at 5 uM incubated for 48 hrs by immunostaining based analysis
HeLa [3] = assay: Induction of pexophagy in human HeLa cells assessed as reduction in peroxisomes at 5 uM incubated for 48 hrs treated with Bafilomycin A1 by immunostaining based analysis
HeLa [4] = assay: Induction of pexophagy in human HeLa cells assessed as increase in ROS levels at 5 uM incubated for 48 hrs in presence of ROS scavenger NAC by DCFH-DA staining based assay
HeLa [5] = assay: Induction of pexophagy in wild-type human HeLa cells assessed as reduction in peroxisomes at 5 uM incubated for 48 hrs by immunostaining based analysis
HeLa [6] = assay: Induction of autophagic flux in human HeLa cells at 5 uM preincubated for 36 hrs followed by addition of Bafilomycin A1 and measured after 12 hrs by Western blot analysis; conditions: time 48.0 hrs
HeLa [7] = assay: Induction of autophagy in human HeLa cells assessed as reduction in peroxisomes number in endoplasmic reticulum at 5 uM incubated for 48 hrs in presence of P4HB antibody by fluorescence microscopic analysis
HeLa [8] = assay: Induction of pexophagy in human HeLa cells assessed as reduction in peroxisome numbers at 5 uM incubated for 48 hrs in presence of anti-ABCD3 antibody by immunostaining based analysis
HeLa [9] = assay: Induction of TFEB nuclear translocation in human HeLa cells assessed as decrease in TFEB phoshorylation at 5 uM measured at 48 hrs by Western blot analysis
HeLa [10] = assay: Induction of pexophagy in wild-type human HeLa cells assessed as decrease in LC3I protein expression at 5 uM incubated for 48 hrs by Western blot analysis
TERT-RPE1 = assay: Induction of pexophagy in human TERT-RPE1 cells expressing mRFP-EGFP-SKL assessed as increase in red-only puncta at 5 uM incubated for 48 hrs by fluorescence microscopic analysis
HeLa [11] = assay: Induction of pexophagy in ATG5 knockout human HeLa cells assessed as decrease in ABCD3 protein expression at 5 uM incubated for 48 hrs by Western blot analysis
HeLa [12] = assay: Induction of pexophagy in human HeLa cells expressing HyPer-PTS1 assessed as reduction in peroxisome numbers at 5 uM incubated for 48 hrs in presence of ROS scavenger NAC by immunostaining based analysis
HeLa [13] = assay: Induction of pexophagy in ATG5 knockout human HeLa cells assessed as […] in LC3II protein expression at 5 uM incubated for 48 hrs by Western blot analysis
HeLa [14] = assay: Induction of pexophagy in human HeLa cells assessed as increase in ATM phosphorylation at serine 1981 residue at 5 uM cotreated with ROS scavenger NAC measured at 48 hrs by Western blot analysis
HeLa [15] = assay: Induction of TFEB nuclear translocation in human HeLa cells expressing EGFP-TFEB at 5 uM measured at 48 hrs in presence of ROS scavenger NAC by fluorescence microscopic analysis
HeLa [16] = assay: Induction of pexophagy in human HeLa cells expressing HyPer-PTS1 assessed as increase in peroxisomal ROS levels at 5 uM incubated for 48 hrs in presence of ROS scavenger NAC by fluorescence based analysis
HeLa [17] = assay: Induction of pexophagy in wild-type human HeLa cells assessed as decrease in ABCD3 protein expression at 5 uM incubated for 48 hrs by Western blot analysis
HeLa [18] = assay: Induction of pexophagy in human HeLa cells at 5 uM cotreated with KU55933 measured at 48 hrs by immunostaining based analysis
HeLa [19] = assay: Induction of pexophagy in ATG5 knockout human HeLa cells assessed as decrease in LC3I protein expression at 5 uM incubated for 48 hrs by Western blot analysis
HeLa [20] = assay: Induction of autophagy in human HeLa cells assessed as reduction in peroxisomes number in mitochondria at 5 uM incubated for 48 hrs in presence of TOMM20 antibody by fluorescence microscopic analysis
HeLa [21] = assay: Induction of pexophagy in wild-type human HeLa cells assessed as […] in LC3II protein expression at 5 uM incubated for 48 hrs by Western blot analysis
HeLa [22] = assay: Induction of pexophagy in human HeLa cells expressing HyPer-PTS1 assessed as reduction in peroxisome numbers at 5 uM incubated for 48 hrs by immunostaining based analysis
HeLa [23] = assay: Induction of pexophagy in human HeLa cells at 5 uM measured at 48 hrs by immunostaining based analysis
HeLa [24] = assay: Induction of autophagy in human HeLa cells assessed as reduction in peroxisomes number golgi apparatus at 5 uM incubated for 48 hrs in presence of FTCD antibody by fluorescence microscopic analysis
HeLa [25] = assay: Induction of pexophagy in human HeLa cells assessed as increase in ATM phosphorylation at serine 1981 residue at 5 uM measured at 48 hrs by Western blot analysis

In the case of `Cc1ccc(OCCn2c(C)c(C=C3C(=O)NC(=S)NC3=O)c3ccccc32)c(C)c1`, the Activity (HeLa [1]) is reported as “inactive”, the Activity (HeLa [2]) is reported as “inactive” and the Activity (HeLa [3]) is reported as “Active”. For the same compound, the Activity (HeLa [4]) was “Active”, the Activity (HeLa [5]) was “Active” and the Activity (HeLa [6]) was “Active”. For the same compound, the Activity (HeLa [7]) was “Active”, the Activity (HeLa [8]) was “Active” and the Activity (HeLa [9]) was “Active”. For the same compound, the Activity (HeLa [10]) was “Active”, the Activity (TERT-RPE1) was “Active” and the Activity (HeLa [11]) was “inactive”. For the same compound, the Activity (HeLa [12]) was “inactive”, the Activity (HeLa [13]) was “inactive” and the Activity (HeLa [14]) was “inactive”. For the same compound, the Activity (HeLa [15]) was “Active”, the Activity (HeLa [16]) was “Active” and the Activity (HeLa [17]) was “Active”. For the same compound, the Activity (HeLa [18]) was “Active”, the Activity (HeLa [19]) was “inactive” and the Activity (HeLa [20]) was “Active”. The Activity (HeLa [21]) was “Active”, the Activity (HeLa [22]) was “Active” and the Activity (HeLa [23]) was “Active”. For the same compound, the Activity (HeLa [24]) was “Active” and the Activity (HeLa [25]) was “Active”.
